# Measurements from ChEMBL document CHEMBL1125558 (J Med Chem, 1992).
# Assays:
# Format in all cases: functional
# [1] = system: Rattus norvegicus; test: Percent response at dose 2.5 mg/kg evaluated by dose-response tests in trained rats(post injection interval 15 min)
# [2] = system: Rattus norvegicus; test: Percent response at dose 5 mg/kg evaluated by dose-response tests in trained rats(post injection interval 15 min)
# [3] = system: Rattus norvegicus; test: Percent response at dose 0.62 mg/kg evaluated by dose-response tests in trained rats(post injection interval 15 min)
# [4] = system: Rattus norvegicus; test: Percent response at dose 1.25 mg/kg evaluated by dose-response tests in trained rats(post injection interval 15 min)
# [5] = system: Rattus norvegicus; test: Percent response at dose 10 mg/kg evaluated by dose-response tests in trained rats(post injection interval 15 min)
# [6] = system: Rattus norvegicus; test: Percent response at dose 10 mg/kg evaluated by temporal tests in trained rats(post injection interval 120 min)
# [7] = system: Rattus norvegicus; test: Percent response at dose 10 mg/kg evaluated by temporal tests in trained rats(post injection interval 15 min)
# [8] = system: Rattus norvegicus; test: Percent response at dose 10 mg/kg evaluated by temporal tests in trained rats(post injection interval 30 min)
# [9] = system: Rattus norvegicus; test: Percent response at dose 10 mg/kg evaluated by temporal tests in trained rats(post injection interval 5 min)
# [10] = system: Rattus norvegicus; test: Percent response at dose 10 mg/kg evaluated by temporal tests in trained rats(post injection interval 60 min)
# [11] = system: Rattus norvegicus; test: Number of animals(n) completing 20 responses on either lever out of the number of animals tested (N) at dose 0.62 mg/kg evaluated by dose-response tests in trained rats(post injection interval 15 min); n/N=7/7
# [12] = system: Rattus norvegicus; test: Number of animals(n) completing 20 responses on either lever out of the number of animals tested (N) at dose 1.25 mg/kg evaluated by dose-response tests in trained rats(post injection interval 15 min); n/N=7/7
# [13] = system: Rattus norvegicus; test: Number of animals(n) completing 20 responses on either lever out of the number of animals tested (N) at dose 10 mg/kg evaluated by dose-response tests in trained rats(post injection interval 15 min); n/N=7/7
# [14] = system: Rattus norvegicus; test: Number of animals(n) completing 20 responses on either lever out of the number of animals tested (N) at dose 10 mg/kg evaluated by temporal tests in trained rats(post injection interval 15 min); n/N=7/7
# [15] = system: Rattus norvegicus; test: Number of animals(n) completing 20 responses on either lever out of the number of animals tested (N) at dose 10 mg/kg evaluated by temporal tests in trained rats(post injection interval 30 min); n/N=7/7
# [16] = system: Rattus norvegicus; test: Number of animals(n) completing 20 responses on either lever out of the number of animals tested (N) at dose 10 mg/kg evaluated by temporal tests in trained rats(post injection interval 5 min); n/N=7/7
# [17] = system: Rattus norvegicus; test: Number of animals(n) completing 20 responses on either lever out of the number of animals tested (N) at dose 10 mg/kg evaluated by temporal tests in trained rats(post injection interval 60 min); n/N=7/7
# [18] = system: Rattus norvegicus; test: Number of animals(n) completing 20 responses on either lever out of the number of animals tested (N) at dose 2.5 mg/kg evaluated by dose-response tests in trained rats(post injection interval 15 min); n/N=7/7
# [19] = system: Rattus norvegicus; test: Number of animals(n) completing 20 responses on either lever out of the number of animals tested (N) at dose 5 mg/kg evaluated by dose-response tests in trained rats; n/N=7/7
# [20] = system: Rattus norvegicus; test: Number of animals(n) completing 20 responses on either lever out of the number of animals tested (N) at dose 10 mg/kg evaluated by temporal tests in trained rats(post injection interval 120 min); n/N=7/7
# [21] = system: Rattus norvegicus; test: Mean responses per minute at dose 10 mg/kg evaluated by dose-response tests in trained rats(post injection interval 15 min)
# [22] = system: Rattus norvegicus; test: Mean responses per minute at dose 10 mg/kg evaluated by temporal tests in trained rats(post injection interval 15 min)
# [23] = system: Rattus norvegicus; test: Mean responses per minute at dose 10 mg/kg evaluated by temporal tests in trained rats(post injection interval 30 min)
# [24] = system: Rattus norvegicus; test: Mean responses per minute at dose 10 mg/kg evaluated by temporal tests in trained rats(post injection interval 5 min)
# [25] = system: Rattus norvegicus; test: Mean responses per minute at dose 10 mg/kg evaluated by temporal tests in trained rats(post injection interval 60 min)
# [26] = system: Rattus norvegicus; test: Mean responses per minute at dose 2.5 mg/kg evaluated by dose-response tests in trained rats(post injection interval 15 min)
# [27] = system: Rattus norvegicus; test: Mean responses per minute at dose 5 mg/kg evaluated by dose-response tests in trained rats(post injection interval 15 min)
# [28] = system: Rattus norvegicus; test: Mean responses per minute at dose 0.62 mg/kg evaluated by dose-response tests in trained rats(post injection interval 15 min)
# [29] = system: Rattus norvegicus; test: Mean responses per minute at dose 1.25 mg/kg evaluated by dose-response tests in trained rats(post injection interval 15 min)
# [30] = system: Rattus norvegicus; test: Mean responses per minute at dose 10 mg/kg evaluated by temporal tests in trained rats(post injection interval 120 min)
smiles,measurement,setting,value
COC(=O)[C@H]1[C@@H](OC(=O)c2ccccc2)C[C@@H]2CC[C@H]1N2C [COCAINE],Drug response,[1],61%
same,Drug response,[2],98%
same,Drug response,[3],6%
same,Drug response,[4],44%
same,Drug response,[5],99%
same,Drug response,[6],31%
same,Drug response,[7],99%
same,Drug response,[8],100%
same,Drug response,[9],85%
same,Drug response,[10],81%
same,No. resp animals / Total,[11],7 / 7
same,n/N,[12],7 / 7
same,No. resp animals / Total,[13],7 / 7
same,No. resp animals / Total,[14],7 / 7
same,No. resp animals / Total,[15],7 / 7
same,No. resp animals / Total,[16],7 / 7
same,No. resp animals / Total,[17],7 / 7
same,No. resp animals / Total,[18],7 / 7
same,No. resp animals / Total,[19],7 / 7
same,No. resp animals / Total,[20],7 / 7
same,Rate response,[21],76 min⁻¹
same,Rate response,[22],76 min⁻¹
same,Rate response,[23],61 min⁻¹
same,Rate response,[24],28 min⁻¹
same,Rate response,[25],23 min⁻¹
same,Rate response,[26],32 min⁻¹
same,Rate response,[27],89 min⁻¹
same,Rate response,[28],27 min⁻¹
same,Rate response,[29],21 min⁻¹
same,Rate response,[30],28 min⁻¹
